Where two headings read alike, the source gives them in different places.
How the values were obtained:
[1] = tested on: MC38 tumor cells; type: in vivo; settings: interim data, dosing schedule not given
Description: (§1) Anti-tumor activity of Compound I in combination with mouse anti-PD-L1 (clone 10F.9G2), and 5-flurouracil (5-FU) was evaluated in the MC38 syngeneic murine colon carcinoma model. For all xenograft studies, nine-week old female C57BL/6 mice (C57BL/6NCrl) were implanted with MC38 tumor cells and treatment was initiated when mean tumor volume was approximately 100 mm^3.
Briefly, Compound I (100 mg/kg) and 5-FU (75 mg/kg) were administered intraperitoneally (IP) once weekly for three doses. […] In the Induction (I) dosing schedule, mouse anti-PD-L1 (100 μg/animal, IP) was given twice weekly for two weeks starting on Day 1 and ending on Day 15. In the Maintenance (M) dosing schedule, mouse anti-PD-L1 (100 μg/animal, IP) was given twice weekly starting on Day 15 and continuing through the end of study. In the Induction+Maintenance (IM) dosing schedule, mouse anti-PD-L1 (100 μg/animal, IP) was given twice weekly starting on Day 1 and continuing through the end of study.
(§2) Single, two, and three drug combinations were tested and Compound I was administered minutes prior to chemotherapy treatment. Complete response (CR) and partial response (PR) were calculated using standard Charles River Laboratories (CRL; RTP, NC) criteria. Body weight (BW) and health were monitored, and tumor volume was measured twice weekly. The individual tumor volume endpoint was 1000 mm^3 or Day 100, whichever came first. The arms of the study included the following: • 1) vehicle • 2) 5-FU+anti-PD-L1 (clone 10F.9G2), IM dosing schedule • 3) Compound I+5-FU+anti-PD-L1 (clone 10F.9G2), IM dosing schedule • 4) 5-FU+anti-mouse PD-L1 (clone 10F.9G2), M dosing schedule • 5) Compound I+5-FU+anti-mouse PD-L1 (clone 10F.9G2), M dosing schedule • 6) 5-FU+anti-mouse PD-L1 (clone 10F.9G2), I dosing schedule • 7) Compound I+5-FU+anti-mouse PD-L1 (clone 10F.9G2), I dosing schedule

[2] = tested on: MC38 tumor cells; type: in vivo; settings: dosing schedule not given, anti-PD-L1 combination study
Description: as §1, with “PD-L1” for “mouse anti-PD-L1”, “10F.9G2)” for “10F.9G2),”, “oxaliplatin” for “5-flurouracil (5-FU)”
Briefly, Compound I (100 mg/kg) and oxaliplatin (10 mg/kg) were administered intraperitoneally (IP) once weekly for three doses and the checkpoint inhibitor administration was varied as depending on the dosing schedule. In the Induction (I) dosing schedule, mouse anti-PD-L1 (100 μg/animal, IP) was given twice weekly for two weeks starting on Day 1 and ending on Day 15. In the Maintenance (M) dosing schedule, mouse anti-PD-L1 (100 μg/animal, IP) was given twice weekly starting on Day 15 and continuing through the end of study. In the Induction+Maintenance (IM) dosing schedule, mouse anti-PD-L1 (100 μg/animal, IP) was given twice weekly starting on Day 1 and continuing through the end of study.
as §2, with “administered 30” for “administered”, “2) Compound I+anti-PD-L1” for “2) 5-FU+anti-PD-L1”, “Compound I+Oxaliplatin+anti-PD-L1” for “Compound I+5-FU+anti-PD-L1”, “4) Oxaliplatin+anti-mouse” for “4) 5-FU+anti-mouse”, “Compound I+oxaliplatin+anti-mouse” for “Compound I+5-FU+anti-mouse”, “6) oxaliplatin+anti-mouse” for “6) 5-FU+anti-mouse”

[3] = tested on: MC38 tumor cells; type: in vivo; settings: dosing schedule not given, anti-PD-1 combination study
Description: For all xenograft studies, nine-week old female C57BL/6 mice (C57BL/6NCrl) were implanted with MC38 tumor cells and treatment was initiated when mean tumor volume was approximately 100 mm^3. Compound I was administered in combination with oxaliplatin and […] according to the Induction and Maintenance (IM) dosing schedule, which is shown in FIG. 3.
Briefly, Compound I (100 mg/kg) and oxaliplatin (10 mg/kg) were administered intraperitoneally (IP) once weekly for three doses and mouse […] (5 mg/kg, IP) was given twice weekly starting on Day 1 and continuing through the end of study.
Single, two, and three drug combinations were tested and Compound I was administered 30 minutes prior to chemotherapy treatment. Complete response (CR) and partial response (PR) were calculated using standard Charles River Laboratories (CRL; RTP, NC) criteria. Body weight (BW) and health were monitored, and tumor volume was measured twice weekly. The individual tumor volume endpoint was 1000 mm^3 or Day 100, whichever came first.

[4] = tested on: splenocytes; experiment: Ex vivo splenocyte stimulation, IL-2 and IFNγ ELISA after 5-FU treatment (Example 6); type: in vivo, C57BL/6 mice; settings: Compound I 100 mg/kg added to 5-FU 50 mg/kg, 3 daily IP doses, splenocytes stimulated with anti-CD3/CD28 72 h
Description: C57BL/6 mice were treated with 3 daily IP doses of 50 mg/kg 5-FU±100 mg/kg Compound I. Two and seven days after the final treatment, mice were euthanized and spleens were harvested. Splenocytes were stimulated ex vivo with anti-CD3/CD28 antibodies for 72 hours and interferon gamma (IFNγ) or interleukin-2 (IL-2) levels were measured via ELISA (R&D systems). After the ex-vivo splenocyte stimulation in C57BL/6 mice, Compound I enhanced IL-2 production (FIG. 12) and preserved IFNγ production (FIG. 13) after 5-FU treatment. A potential mechanism by which Compound I enhances anti-tumor activity includes the preservation of T lymphocyte function from chemotherapy.

[5] = tested on: CT26 tumor; experiment: CT26 tumor growth in mice (Example 7); type: in vivo; settings: Compound I added to an anti-PD-L1/oxaliplatin regimen
Description: CT26 bearing mice are treated with Compound I (IP, 100 mg/kg, weekly×3), anti-PD-L1 (IP, 5 mg/animal, biweekly to end), and/or oxaliplatin (IP, 10 mg/kg, weekly×3) and tumors were evaluated.

[6] = tested on: CD4+ and CD8+ T cells; experiment: T cell activation (CD69, IL-2) in splenocytes of MC38 tumor-bearing mice (Example 8); type: in vivo; settings: Compound I added to oxaliplatin and anti-PD-L1, four days; spleen; FIGS. 16, 17
Source text: Twenty-four hours after the final dose, the mice were euthanized and spleens were harvested and processed to single-cell suspensions for T-cell analysis. Splenocytes were stained with anti-CD4, CD8, and CD69 antibodies for flow cytometric analysis. The percentage of activated CD4+ T cells was defined as the proportion of CD69+ cells within the CD8−CD4+ T cell fraction, while the percentage of activated CD8+ T cells was defined as the proportion of CD69+ cells within the CD8+CD4− T cell fraction, the results of which are shown in FIGS. 16 and 17. Additionally, splenocytes were also stimulated ex-vivo with anti-CD3/CD28 antibodies for 72 hours and were stained with anti-CD4, CD8, and IL-2 antibodies for flow cytometric analysis. The percentage of IL-2+ cells was defined as the proportion of IL-2+ cells within the […] T cell fraction, the results of which are shown in FIG. 18.

[7] = tested on: CDK4/6-Rb pathway; experiment: Phospho-Rb in purified Tregs cultured ex vivo, flow cytometry (Example 9); type: cell-based, C57BL/6 mice; settings: 0, 250 or 1000 nM, 48 hours; FIG. 19
Description: (§3) CD4+CD25+ Tregs were purified from spleens of C57BL/6 mice using a two-step magnetic bead separation process-depletion of all non-CD4+ cells followed by positive selection of CD25+ cells. Purified Tregs were cultured ex-vivo with […] antibodies and IL-2 for 48 hours with either 0, 250, or 1000 nM trilaciclib. […] The percentage of phospho-Rb+ Tregs was defined as phospho-Rb+ cells in the CD4+Foxp3+ population. […] CFSE-labeled splenocytes were stimulated ex-vivo with anti-CD3/CD28 antibodies for 72 hours in the presence or absence of Tregs treated with Compound I. Cells were stained with anti-CD4 and CD8 antibodies, and T cell proliferation was assessed by the dilution of the mean fluorescence intensity of CFSE in CD4-CD8+ T cells by flow cytometric analysis. Percent proliferation was calculated as (mean CFSE intensity of CD8+ T cells stimulated in the absence of Tregs)/(mean CFSE intensity of CD8+ T cells stimulated in the presence of Tregs)×100, the results of which are shown in FIG. 19 and FIG. 20.

[8] = tested on: CD8+ T cells; experiment: CFSE proliferation of CD8+ T cells in the presence of Tregs treated with Compound I (Example 9); type: cell-based, C57BL/6 mice; settings: splenocytes stimulated with anti-CD3/CD28 72 hours; FIG. 20
Description: as §3

[9] = tested on: intra-tumor immune cells; experiment: EdU incorporation in intra-tumor immune cell populations of MC38 tumor-bearing mice (Example 10); type: in vivo, C57BL/6 mice; settings: one dose 100 mg/kg IP; EdU 6 to 48 hours after treatment; FIGS. 21, 22
Description: MC38 tumor-bearing C57BL/6 mice were treated with one dose of Compound I (100 mg/kg, IP), followed by in vivo EdU (5-ethynyl-2′-deoxyuridine, 200 μg/mouse, IP) incorporation 6 to 48 hours after treatment with Compound I. Eighteen hours after EdU dosing, mice were euthanized and tumors were harvested for analysis. Tumors were processed to single-cell suspensions, followed by depletion of dead cells and enrichment of CD45+ immune cells prior to antibody labeling for various lymphoid and myeloid immune cell populations defined as follows: CD8+ T cells (CD4−CD8+), CD4+ T cells (CD4+CD8−Foxp3−), Tregs (CD4+CD8−Foxp3+), NK (CD3−NK1.1+), monocytic myeloid derived suppressor cells (mMDSCs, CD11b+Ly6C+Ly6G−), granulocytic myeloid derived suppressor cells (gMDSCs, CD11b+Ly6C+Ly6G+), and macrophages (CD11b+Ly6C−Ly6G−). After cell surface staining, cell samples were fixed and EdU incorporation was detected by click chemistry followed by flow cytometric analysis. Inhibition of proliferation is represented as the (% EdU+ in Compound I treated)/(% EdU+ in vehicle treated)×100 for each cell population at each time point.

[10] = tested on: MC38 tumors; experiment: Whole-tumor gene expression, PanCancer Immune Profiling Panel, two weekly doses (Examples 12 and 14); type: in vivo, C57BL/6 mice; settings: two weekly doses 100 mg/kg IP, p <0.05, absolute fold change >1.3
Description: MC38 tumor-bearing C57BL/6 mice were treated with two weekly doses of Compound I (100 mg/kg, IP). One day after the last dose, mice were euthanized and tumors were harvested for analysis. Gene expression analysis was performed on whole tumors using the PanCancer Immune Profiling Panel. Normalized and Log 2 transformed expression values were used for identification of differentially expressed genes, defined using a p-value cutoff of <0.05 and absolute fold change >1.3.

[11] = tested on: MC38 tumors; experiment: Whole-tumor interferon-gamma (Ifng) expression, PanCancer Immune Profiling Panel (Example 13); type: in vivo, C57BL/6 mice; settings: Compound I added to oxaliplatin or oxaliplatin/anti-PD-L1 combinations, eight days; FIGS. 28-31
Description: Twenty-four hours after the final dose, mice were euthanized and tumors were harvested for analysis. Gene expression analysis was performed on whole tumors using the PanCancer Immune Profiling Panel. The normalized and Log 2 transformed expression level of interferon-gamma (Ifng) is plotted for each pair of treatment groups with or without Compound I. T=Compound I, O=oxaliplatin, P=anti-PD-L1.

[12] = tested on: MC38 tumor; experiment: MC38 tumor volume under continuous daily dosing of Compound I with or without anti-PD-L1 (Example 16); type: in vivo, mice; settings: continuous Compound I (daily x 28 days, IP, 100 mg/kg) added to anti-PD-L1; FIG. 38
Description: MC38 tumor-bearing mice were treated with Compound I (daily×28 days, IP, 100 mg/kg) with or without anti-PD-L1 (biweekly×2 weeks, IP, 100 ug/animal) and tumor volume was evaluated.

| Structure (SMILES) | Complete Response % [2] | Objective Response Rate % [2] | Overall Survival (OS) [2] | Partial Response % [2] | Complete Response % [3] | Objective Response Rate % [3] | Overall Survival (OS) [3] | Partial Response % [3] | further results |
| --- | --- | --- | --- | --- | --- | --- | --- | --- | --- |
| O=c1[nH]cc(F)c(=O)[nH]1 [Compound 5-FU, 5-Fluorouracil] | – | – | – | – | – | – | – | – | Overall Survival @ D29% ([1]; Day 29): 30%; Complete Response % ([1]; MC38): 0%; Objective Response Rate % ([1]; MC38): 0%; Partial Response % ([1]; MC38): 0%; Progressive Disease % ([1]; percent of tumors that have doubled in size by Day 29): 100% |
| CN1CCN(c2ccc(Nc3ncc4cc5n(c4n3)C3(CCCCC3)CNC5=O)nc2)CC1 [Compound I, trilaciclib] | 0% | 0% | 19 | 0% | 10% | 20% | 22 | 10% | IL-2 production ([4]; FIG. 12): enhanced; IFNγ production ([4]; FIG. 13): preserved; anti-tumor efficacy [5]: consistently enhanced anti-tumor efficacy; T cell activation (CD69+ CD4+ and CD8+ T cells) [6]: Enhanced T Cell Activation; phospho-Rb level in Tregs [7]: dose-dependent down-regulation; proliferation of CD8+ T cells in the presence of Tregs treated with Compound I [8]: dose-dependent increase in proliferation; proliferation of intra-tumor lymphoid and myeloid immune cell populations (EdU) [9]: transient and reversible inhibition of cell proliferation; expression of genes Il2, Il18, and Lta (positive regulation of interferon-gamma production) ([10]; FIGS. 25-27): Up-regulated; expression of genes Cdkn1a, Cxcl1, Il6, Il10, Il19, Ptgs2 (reactive oxygen species metabolism) ([10]; FIGS. 32-37): Down-regulated; interferon-gamma gene expression in tumor [11]: Upregulation; anti-tumor effect (tumor volume) [12]: does not enhance the anti-tumor effect and, in fact, causes some attenuation |
| O=C1[O][Pt]2([NH][C@@H]3CCCC[C@H]3[NH]2)[O]C1=O [Oxaliplatin, oxaliplatin, reference compound] | 22% | 22% | 36 | 0% | 10% | 10% | 31 | 0% | – |
